Like-named read-outs stand apart in the source and are kept apart here.
What was measured:
[1] = phase 1 first-in-human trial, multiple ascending dose (MAD) PK; type: in vivo; conditions: for reduction of AUC compared to Day 1 / reduction of Cmax compared to Day 1: Day 7, fasted; for fold increase in AUC / fold increase in Cmax: MAD Day 1; for AUC: read-out: AUC(0-tau) (geometric mean); for Cmax: read-out: Cmax (geometric mean)
Protocol: Anle138b was studied in a single-centre, double-blind, randomised, placebo-controlled single ascending dose (SAD) and multiple ascending dose (MAD) study in healthy subjects. Eligible participants were randomly assigned (1:1 for sentinel subjects and 1:5 for main group) to placebo or anle138b (dose ranging from 50 mg to 300 mg per day), respectively. In addition, the effect of food on the pharmacokinetics (PK) of anle138b in healthy subjects was examined at doses of 150 mg per day (FES, food effect study). Participants were randomized to treatment sequence (fed→fasted) or (fasted→fed). Treatment for the SAD, MAD and FES arms of the study was administered orally in hard gelatin capsules containing either 10 mg or 30 mg of anle138b with excipient (i.e., lauroyl polyoxyl-32 glycerides) or excipient only. The primary endpoints were safety and tolerability, the secondary endpoint was pharmacokinetics. Data from all randomized individuals were evaluated. [Clinicaltrials.gov-identifier: NCT04208152. EudraCT-number: 2019-004218-33]
Study design: A single-centre, double-blind, randomised, placebo-controlled single ascending dose (SAD) and multiple ascending dose (MAD) study of anle138b in doses of up to 300 mg per day in healthy subjects. The effect of food (FES) on the PK of anle138b in healthy subjects was examined using doses of 150 mg. Participants were recruited from Quotient Sciences (the “CRO”, Nottingham, UK) volunteer database. Approvals from the ethical review board and from the Medicines and Healthcare products Regulatory Agency (UK) were obtained. This study was conducted in accordance with the protocol and with the following legislation: The updated version of the international Council for Harmonisation Good Clinical Practice (GCP) including the integrated Addendum E6, the Medicines for Human Use (Clinical Trials) Regulations including amendments No. 1928, 2984 and 941. In addition, the study was performed according to the ethical principles outlined in the World Medical Association Declaration of Helsinki and its amendments. The study data was monitored. An independent study monitor was appointed to verify that the study was conducted in accordance with current GCP, regulatory requirements, the protocol and that the data were authentic, accurate and complete.
In SAD, subjects received a single dose of anle138b or placebo after fasting from all food and drink (except water) for a minimum of 8 h prior to dosing. The dosing in the four SAD-cohorts were 50 mg, 100 mg, 200 mg and 300 mg of free anle138b equivalent, QD, cohorts A, B, C and D respectively. In the MAD part, participants received anle138b or placebo once daily (QD) for 7 days after fasting from all food and drink (except water) for a minimum of 8 h prior to dosing. The dosing in the three MAD-cohorts was 100 mg, 200 mg and 300 mg of free anle138b equivalent, cohorts AM, BM and CM, respectively. Post dosing mouth and hand checks were conducted to ensure the capsules were swallowed. In-study decisions were made by the safety advisory committee (SAC) comprising the principal investigator, the sponsor's medical monitor and a PK expert. For dose escalation to proceed, data needed to be available from a minimum of 6 subjects per cohort with completed per protocol safety and PK assessments up to 48 h after dosing to ensure at least 4 subjects had received active IMP. The decision to proceed to the next higher dose level was based on safety, tolerability and available PK data to 48 h post-administration. The following data were analyzed: Adverse events, vital signs, safety laboratory, ECG, physical examinations, plasma concentrations of anle138b with interim PK parameter estimations (Tmax, Cmax, AUC0-24, AUC0-tau, AUC0-last and T½, where applicable). Data were provided to the SAC in accordance with CRO standard operating procedure (SOP) on interim dose decision-making and dose escalation. […]

oligomer accumulation = conditions: range of different mouse models; cited from earlier work
[2] = 1.5-fold increase in dose from 200 mg to 300 mg
[3] = 2-fold increase in dose from 100 mg to 200 mg
[4] = human, plasma, oral, 100 mg, healthy volunteers, fasted, 100 mg QD, Day 1
[5] = human, plasma, oral, 100 mg, healthy volunteers, fasted, 100 mg QD, Day 7
[6] = human, plasma, oral, 200 mg, healthy volunteers, fasted, 200 mg QD, Day 1
[7] = human, plasma, oral, 200 mg, healthy volunteers, fasted, 200 mg QD, Day 7
[8] = human, plasma, oral, 300 mg, healthy volunteers, fasted, 300 mg QD, Day 1
[9] = human, plasma, oral, 300 mg, healthy volunteers, fasted, 300 mg QD, Day 7

In the case of `Brc1cccc(-c2cc(-c3ccc4c(c3)OCO4)n[nH]2)c1` [anle138b, 3-(1,3-benzodioxol-5-yl)-5-(3-bromophenyl)-1H-pyrazole], the “reduction of AUC compared to Day 1” value ([1]; MAD 100 mg group) is reported as “about 53%”, the “reduction of Cmax compared to Day 1” value ([1]; MAD 100 mg group) is reported as “about 53%” and the “reduction of AUC compared to Day 1” value ([1]; MAD 200 mg group) is reported as “about 70%”. The “reduction of Cmax compared to Day 1” value ([1]; MAD 200 mg group) was “about 70%”, the “reduction of AUC compared to Day 1” value ([1]; MAD 300 mg group) was 71% and the “reduction of Cmax compared to Day 1” value ([1]; MAD 300 mg group) was 66%. For the same molecule, the “fold increase in AUC” value [1, 2] was 2.4 fold, the “fold increase in Cmax” value [1, 2] was 2.0 fold and the “fold increase in AUC” value [1, 3] was 3.5 fold. The “fold increase in Cmax” value [1, 3] was 3.3 fold, the “accumulation ratios per cohort” value ([1]; MAD, Day 7 vs Day 1) was “below 0.54” and the “day by which steady state exposure appeared to be reached” value ([1]; MAD, based on trough levels) was no more than 5 days. The Tmax ([1]; human, plasma, oral, 100 mg, healthy volunteers, fasted, 100 mg QD (Cohort AM), Day 1, read-out: Tmax (median)) was 1 h, the Tmax ([1]; human, plasma, oral, 100 mg, healthy volunteers, fasted, 100 mg QD (Cohort AM), Day 1, read-out: Tmax (range)) was 1 to 1.5 h and the Tmax ([1]; human, plasma, oral, 100 mg, healthy volunteers, fasted, 100 mg QD (Cohort AM), Day 7, read-out: Tmax (median)) was 1.25 h. For the same molecule, the Tmax ([1]; human, plasma, oral, 100 mg, healthy volunteers, fasted, 100 mg QD (Cohort AM), Day 7, read-out: Tmax (range)) was 1 to 1.5 h, the AUC [1, 4] was roughly 261 ng·h/mL and the Cmax [1, 4] was roughly 135 ng/mL. For the same molecule, the AUC [1, 5] was roughly 141 ng·h/mL, the Cmax [1, 5] was roughly 70.9 ng/mL and the half-life ([1]; human, plasma, oral, 100 mg, healthy volunteers, fasted, 100 mg QD, Day 7, read-out: T1/2 (geometric mean) (converted)) was roughly 4.23 h. For the same molecule, the Tmax ([1]; human, plasma, oral, 200 mg, healthy volunteers, fasted, 200 mg QD (Cohort BM), Day 1, read-out: Tmax (median)) was 1.5 h, the Tmax ([1]; human, plasma, oral, 200 mg, healthy volunteers, fasted, 200 mg QD (Cohort BM), Day 1, read-out: Tmax (range)) was 1 to 2.02 h and the Tmax ([1]; human, plasma, oral, 200 mg, healthy volunteers, fasted, 200 mg QD (Cohort BM), Day 7, read-out: Tmax (median)) was 1 h. The Tmax ([1]; human, plasma, oral, 200 mg, healthy volunteers, fasted, 200 mg QD (Cohort BM), Day 7, read-out: Tmax (range)) was 1 to 1.5 h, the AUC [1, 6] was roughly 905 ng·h/mL and the Cmax [1, 6] was roughly 447 ng/mL. For the same molecule, the AUC [1, 7] was roughly 308 ng·h/mL, the Cmax [1, 7] was roughly 128 ng/mL and the half-life at 7 days ([1]; human, plasma, oral, 200 mg, healthy volunteers, fasted, 200 mg QD, Day 7, read-out: T1/2 (geometric mean) (converted)) was roughly 10 h. It also gave a Tmax ([1]; human, plasma, oral, 300 mg, healthy volunteers, fasted, 300 mg QD (Cohort CM), Day 1, read-out: Tmax (median)) of 1.5 h, a Tmax ([1]; human, plasma, oral, 300 mg, healthy volunteers, fasted, 300 mg QD (Cohort CM), Day 1, read-out: Tmax (range)) of 1.5 to 2 h and a Tmax ([1]; human, plasma, oral, 300 mg, healthy volunteers, fasted, 300 mg QD (Cohort CM), Day 7, read-out: Tmax (median)) of 1.5 h. For the same molecule, the Tmax ([1]; human, plasma, oral, 300 mg, healthy volunteers, fasted, 300 mg QD (Cohort CM), Day 7, read-out: Tmax (range)) was 1 to 1.5 h, the AUC [1, 8] was roughly 2210 ng·h/mL and the Cmax [1, 8] was roughly 910 ng/mL. The AUC [1, 9] was roughly 633 ng·h/mL, the Cmax [1, 9] was roughly 307 ng/mL and the half-life ([1]; human, plasma, oral, 300 mg, healthy volunteers, fasted, 300 mg QD, Day 7, read-out: T1/2 (geometric mean) (converted)) was roughly 6.07 h. The Tmax ([1]; human, plasma, oral, healthy volunteers, 100-300 mg QD, post-administration, read-out: median Tmax, all MAD cohorts) was 1 to 1.5 h and the “effect in mouse models in vivo (in words)” value (oligomer accumulation) was “strongly inhibited oligomer accumulation, neuronal degeneration, and disease progression”.
